Results as given in US8546389B2 (priority 2010, dated 2013).
Read-outs that look alike come from different tables or passages of the source.

Experiments:
[1] = biological target: 1b (BK) NS5bΔ21 (Hepatitis C virus genotype 1b (isolate BK) (HCV), UniProt P26663); test: HCV polymerase inhibition assay, genotype 1b; format: biochemical, HCV genotype 1b (BK)
In short: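 Both genotype 1b and 3a enzymes assayed identically: ^33P-GTP incorporation on poly(rC) template, GTP at Km, 50 nM NS5bΔ21, pH 7.5 Tris with 5 mM MgCl2 and MnCl2, 1 h reaction ended by cold EDTA. Filter-bound label counted; IC50 fitted by non-linear regression across three-fold dilution series.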

[2] = biological target: genotype 3a (VRL-69) NS5bΔ21 polymerase (Hepatitis C virus genotype 3a, UniProt Q81258); test: HCV polymerase inhibition assay, genotype 3a; format: biochemical, HCV genotype 3a (VRL-69); details: genotype 3a; read-out: 3a NS5b polymerase IC50
Sequence of genotype 3a (VRL-69) NS5bΔ21 polymerase (Q81258 whole entry, looked up, stated change not applied): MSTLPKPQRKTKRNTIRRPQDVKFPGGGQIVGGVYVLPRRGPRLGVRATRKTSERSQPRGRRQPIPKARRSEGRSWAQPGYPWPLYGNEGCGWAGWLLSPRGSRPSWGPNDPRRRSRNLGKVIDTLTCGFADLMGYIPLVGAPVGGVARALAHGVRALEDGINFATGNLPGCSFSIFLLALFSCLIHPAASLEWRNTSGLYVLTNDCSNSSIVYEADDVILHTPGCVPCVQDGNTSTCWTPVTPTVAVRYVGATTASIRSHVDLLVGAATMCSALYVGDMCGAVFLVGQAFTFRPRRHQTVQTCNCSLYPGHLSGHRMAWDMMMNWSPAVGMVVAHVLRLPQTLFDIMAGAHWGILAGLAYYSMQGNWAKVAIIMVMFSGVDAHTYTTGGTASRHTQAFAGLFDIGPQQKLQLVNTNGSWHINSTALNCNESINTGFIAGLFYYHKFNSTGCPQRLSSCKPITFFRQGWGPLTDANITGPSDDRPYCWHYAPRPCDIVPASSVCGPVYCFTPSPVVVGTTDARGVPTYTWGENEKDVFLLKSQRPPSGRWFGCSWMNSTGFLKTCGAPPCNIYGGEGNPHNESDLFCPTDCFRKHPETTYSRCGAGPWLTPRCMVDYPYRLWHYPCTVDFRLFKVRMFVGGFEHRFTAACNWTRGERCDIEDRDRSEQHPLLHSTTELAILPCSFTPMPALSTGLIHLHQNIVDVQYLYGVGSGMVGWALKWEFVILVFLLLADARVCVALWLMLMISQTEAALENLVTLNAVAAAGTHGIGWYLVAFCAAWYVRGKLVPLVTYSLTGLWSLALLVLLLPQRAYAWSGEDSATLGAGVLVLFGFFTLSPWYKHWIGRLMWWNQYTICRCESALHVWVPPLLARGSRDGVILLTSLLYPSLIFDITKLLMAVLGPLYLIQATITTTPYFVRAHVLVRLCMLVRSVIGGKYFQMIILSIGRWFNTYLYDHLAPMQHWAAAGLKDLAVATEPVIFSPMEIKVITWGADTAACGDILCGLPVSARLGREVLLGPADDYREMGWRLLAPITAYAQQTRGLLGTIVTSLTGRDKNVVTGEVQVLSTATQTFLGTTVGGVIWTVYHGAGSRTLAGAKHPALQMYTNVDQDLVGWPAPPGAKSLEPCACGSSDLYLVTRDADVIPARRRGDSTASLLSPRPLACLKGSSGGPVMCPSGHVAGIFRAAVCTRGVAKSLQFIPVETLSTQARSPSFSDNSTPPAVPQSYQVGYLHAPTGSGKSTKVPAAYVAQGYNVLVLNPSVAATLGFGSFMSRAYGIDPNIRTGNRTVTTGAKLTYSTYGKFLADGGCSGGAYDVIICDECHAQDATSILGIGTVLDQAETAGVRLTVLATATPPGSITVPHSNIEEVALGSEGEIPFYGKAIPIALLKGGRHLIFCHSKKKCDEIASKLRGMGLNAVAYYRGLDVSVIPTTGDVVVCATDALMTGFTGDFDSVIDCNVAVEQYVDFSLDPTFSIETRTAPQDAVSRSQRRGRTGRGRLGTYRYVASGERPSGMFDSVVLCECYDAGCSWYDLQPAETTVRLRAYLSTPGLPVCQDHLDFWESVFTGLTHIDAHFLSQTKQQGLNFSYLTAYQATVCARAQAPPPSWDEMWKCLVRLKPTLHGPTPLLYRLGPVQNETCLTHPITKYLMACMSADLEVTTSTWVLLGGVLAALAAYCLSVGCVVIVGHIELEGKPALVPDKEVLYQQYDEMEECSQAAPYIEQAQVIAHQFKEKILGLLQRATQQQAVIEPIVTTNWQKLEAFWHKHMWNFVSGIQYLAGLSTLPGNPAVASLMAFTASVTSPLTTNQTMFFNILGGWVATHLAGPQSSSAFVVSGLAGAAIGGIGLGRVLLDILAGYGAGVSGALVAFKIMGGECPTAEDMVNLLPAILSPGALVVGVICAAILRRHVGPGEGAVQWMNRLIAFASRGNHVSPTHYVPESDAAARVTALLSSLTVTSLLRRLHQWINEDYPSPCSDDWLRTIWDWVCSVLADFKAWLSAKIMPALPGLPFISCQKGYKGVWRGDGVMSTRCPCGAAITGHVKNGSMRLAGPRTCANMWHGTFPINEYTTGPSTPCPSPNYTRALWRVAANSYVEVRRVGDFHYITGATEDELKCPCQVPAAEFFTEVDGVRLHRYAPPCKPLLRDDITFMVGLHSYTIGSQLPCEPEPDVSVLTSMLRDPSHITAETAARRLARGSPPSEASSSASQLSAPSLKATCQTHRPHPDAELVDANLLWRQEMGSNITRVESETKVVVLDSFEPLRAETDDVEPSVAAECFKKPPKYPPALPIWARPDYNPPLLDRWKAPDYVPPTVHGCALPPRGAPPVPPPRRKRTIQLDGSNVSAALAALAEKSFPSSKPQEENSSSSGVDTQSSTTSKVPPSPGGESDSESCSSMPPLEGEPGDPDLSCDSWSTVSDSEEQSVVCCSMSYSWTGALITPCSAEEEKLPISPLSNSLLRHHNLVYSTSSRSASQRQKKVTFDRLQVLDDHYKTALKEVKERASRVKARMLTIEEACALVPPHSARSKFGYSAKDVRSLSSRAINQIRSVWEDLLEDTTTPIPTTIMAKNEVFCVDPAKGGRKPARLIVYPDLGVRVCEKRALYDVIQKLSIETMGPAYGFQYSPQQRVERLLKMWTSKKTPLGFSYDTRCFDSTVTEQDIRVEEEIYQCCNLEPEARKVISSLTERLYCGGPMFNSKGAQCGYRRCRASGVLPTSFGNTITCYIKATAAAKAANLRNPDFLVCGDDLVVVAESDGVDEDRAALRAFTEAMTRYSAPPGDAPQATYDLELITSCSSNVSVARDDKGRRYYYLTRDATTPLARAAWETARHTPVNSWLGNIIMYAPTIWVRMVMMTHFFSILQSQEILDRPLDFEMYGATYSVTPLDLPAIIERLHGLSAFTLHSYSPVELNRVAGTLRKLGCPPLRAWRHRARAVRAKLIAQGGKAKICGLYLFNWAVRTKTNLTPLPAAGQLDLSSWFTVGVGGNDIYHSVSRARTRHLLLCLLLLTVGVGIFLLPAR
Protocol: HCV polymerase reactions were carried out using a modified method of Howe et al., Antimicrobial Agents and Chemotherapy 2004 48(12): 4813-4821. Reactions contained a final concentration of, 0.5% DMSO, 50 nM, 1b (BK) NS5bΔ21, 20 mM Tris-HCl pH 7.5, 5 mM MgCl2, 5 mM MnCl2, 3 mM DTT, 0.05% BSA, 0.2 U/μL RNasin, 10 μg/mL Poly(rC) template, GTP (at Km) and 0.05 μCi/μL ^33P-GTP in a total reaction volume of 50 μL. Compounds were tested in a three fold dilution series, for example starting from 50 μM. Reactions were initiated with the addition of GTP and terminated after 1 hour with 50 μL ice cold 0.2 M EDTA. Terminated reactions were transferred to DEAE 96-well filter plates, unincorporated nucleotides washed from the filters and 50 μL scintillation fluid added prior to reading on a scintillation counter. Similarly, a genotype 3a (VRL-69) NS5bΔ21 polymerase enzyme assay was conducted using essentially the same method.
The compound concentration that reduced ^33P-GTP incorporation by 50% (IC50) was calculated using non-linear regression.

[3] = tested on: genotype 1b (Con 1) subgenomic replicon cell line; test: HCV replicon assay, genotype 1b (Renilla luciferase); format: cell-based, HCV genotype 1b (Con 1); details: Hepatitis C virus, genotype 1b replicon
In short: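 Subgenomic replicon cells expressing Renilla luciferase (1b Con1; 1a and 2a lines by the same method) seeded at 7000 cells/well (5000 for 2a) without G418, exposed to 3-fold compound dilutions for 72 h at 37 °C. Luciferase activity measured; EC50 by non-linear regression.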

[4] = tested on: subgenomic genotype 1a replicon cell line; test: HCV replicon assay, genotype 1a; format: cell-based, HCV genotype 1a; details: Hepatitis C virus
Protocol: (§1) A genotype 1b (Con 1) subgenomic replicon cell line based on Blight et al., Science 2000 290: 1972-1974, modified to express a Renilla luciferase reporter gene was used to assess antiviral activity of test compounds. Cell cultures were maintained in a sub-confluent state in DMEM with glutamine, 10% heat-inactivated foetal bovine serum (FBS) and G418 (Geneticin®).
(§2) For assay, cells were seeded at a density of 7000 cells/well into 96 well tissue culture trays in culture media lacking G418. Compounds were tested in a three fold dilution series, for example starting from 50 uM. After 72 hours incubation at 37° C. and 5% CO2, Renilla luciferase activity was quantified via the Promega Renilla Luciferase or Renilla-Glo™ Luciferase Assay Systems (Promega corporation. The same method was employed for replicon assays using subgenomic genotype 1a and 2a replicon cell lines with a seeding cell density of 5000 cells/well for the 2a cell lines.
(§3) The compound concentration that reduced luciferase activity by 50% (EC50) was calculated using non-linear regression.

[5] = tested on: subgenomic genotype 2a replicon cell line; test: HCV replicon assay, genotype 2a; format: cell-based, HCV genotype 2a; details: Hepatitis C virus
Protocol: as §1, §2, §3

[6] = tested on: genotype 1b (Con 1) subgenomic replicon cell line; test: Combination studies in replicon cells (MacSynergy II); format: cell-based, HCV genotype 1b (Con 1)
Protocol: as §1, with “synergy” for “antiviral activity”
For assay, cells were seeded at a density of 7000 cells/well into 96 well tissue culture trays in culture media lacking G418. The compound concentration that reduced luciferase activity by 50% (EC50) was determined independently for each compound and used to set the range of concentrations for the combination experiments. […] The ratio of the 2 compounds tested remained fixed across the titration range. […] After 72 hours incubation at 37° C. and 5% CO2, Renilla luciferase activity was quantified via the Promega Renilla Luciferase Assay System.
Results were analysed and levels of synergy assessed via generation of 3D synergy plots using MacSynergy™ II (Prichard, M. N., K. R. Aseltine, and C. Shipman, Jr. 1993. MacSynergy II. Version 1.0. User's manual. University of Michigan, Ann Arbor.). […] Compound 175 was selected as a representative example of the compounds of the invention for synergistic studies.

Sequence of 1b (BK) NS5bΔ21 (P26663 2420-2989): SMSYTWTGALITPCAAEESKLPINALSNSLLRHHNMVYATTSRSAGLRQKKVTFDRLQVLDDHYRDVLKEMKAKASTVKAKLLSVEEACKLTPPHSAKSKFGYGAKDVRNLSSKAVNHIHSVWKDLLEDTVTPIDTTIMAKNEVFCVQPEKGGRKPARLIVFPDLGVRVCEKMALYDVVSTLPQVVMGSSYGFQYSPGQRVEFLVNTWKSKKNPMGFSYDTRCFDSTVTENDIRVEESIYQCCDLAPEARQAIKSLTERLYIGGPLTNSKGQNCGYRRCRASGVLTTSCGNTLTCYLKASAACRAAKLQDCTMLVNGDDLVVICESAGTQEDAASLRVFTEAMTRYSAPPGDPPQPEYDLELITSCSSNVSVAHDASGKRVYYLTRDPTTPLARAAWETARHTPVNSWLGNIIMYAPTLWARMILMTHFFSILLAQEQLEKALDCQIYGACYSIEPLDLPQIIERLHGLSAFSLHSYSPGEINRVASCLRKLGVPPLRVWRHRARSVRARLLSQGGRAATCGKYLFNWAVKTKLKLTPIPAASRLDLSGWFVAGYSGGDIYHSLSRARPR

With `CCN(c1cc2nn(-c3ccc(Cl)cc3)c(C(=O)NC)c2cc1C1CC1)S(C)(=O)=O` [Compound 175] the IC50 ([1]; 1b (BK) NS5bΔ21, 33P-GTP incorporation, read-out: 1b polymerase IC50 (range class)) was < 990 nM, the IC50 ([1]; genotype 1b, read-out: 1b NS5b polymerase IC50) was 100 nM and the IC50 [2] was 30 nM. For the same compound, the EC50 ([3]; 72 hours, luciferase, read-out: genotype 1b EC50 (range class)) was < 990 nM, the EC50 ([3]; read-out: Replicon 1b EC50) was 60 nM and the EC50 [4] was 260 nM. The EC50 [5] was 80 nM, the “synergy in combination with a nucleoside NS5b inhibitor” value ([6]; with 4-amino-7-(2-C-methyl-β-D-ribofuranosyl)-pyrrolo[2,1-f][1,2,4]triazine, FIG. 1, 95% confidence intervals) was “statistically significant synergy” and the “synergy in combination with an NS5a inhibitor” value ([6]; with BMS-790052, daclatasvir, FIG. 3, 95% confidence intervals) was “statistically significant synergy”. The “synergy in combination with a NS3/4a protease inhibitor” value ([6]; with VX-950, telaprevir, FIG. 2, 95% confidence intervals) was “statistically significant synergy”.
